Measurements reported in ChEMBL document CHEMBL1201862, “PubChem BioAssay data set” (2004).
Active and inactive are the calls of the source.

What was measured:
[1] = target: 26S proteasome non-ATPase regulatory subunit 14 (Homo sapiens, UniProt O00487); assay: inhibition of proteasome subunit RPN11 – biochemical, fluorescence polarization, uHTS hits, confirmation (AID 602368); assay type: functional
Prothrombin = Prothrombin (Bos taurus, UniProt P00735); assay: thrombin inhibition, dose response, biochemical, fluorescence polarization, uHTS hits (AID 602369); assay type: functional
[2] = target: Heat shock protein HSP 90-alpha (Homo sapiens, UniProt P07900); assay type: functional, organism-based
[3] = target: T1, Heat shock factor protein 1 (Mus musculus, UniProt P38532); assay: HSF1 potentiators in luciferase reporter cells, confirmation, cell-based, NIH3T3, luminescence, dose retest (AID 435004); assay type: functional;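 also: stress induced by proteasome inhibitor MG132 added 30 min after compound; luciferase reporter driven by HSF1 response element in NIH3T3 cells; actives raise luminescence as potentiators of the MG132 stress response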
T1 sequence (P38532 whole entry): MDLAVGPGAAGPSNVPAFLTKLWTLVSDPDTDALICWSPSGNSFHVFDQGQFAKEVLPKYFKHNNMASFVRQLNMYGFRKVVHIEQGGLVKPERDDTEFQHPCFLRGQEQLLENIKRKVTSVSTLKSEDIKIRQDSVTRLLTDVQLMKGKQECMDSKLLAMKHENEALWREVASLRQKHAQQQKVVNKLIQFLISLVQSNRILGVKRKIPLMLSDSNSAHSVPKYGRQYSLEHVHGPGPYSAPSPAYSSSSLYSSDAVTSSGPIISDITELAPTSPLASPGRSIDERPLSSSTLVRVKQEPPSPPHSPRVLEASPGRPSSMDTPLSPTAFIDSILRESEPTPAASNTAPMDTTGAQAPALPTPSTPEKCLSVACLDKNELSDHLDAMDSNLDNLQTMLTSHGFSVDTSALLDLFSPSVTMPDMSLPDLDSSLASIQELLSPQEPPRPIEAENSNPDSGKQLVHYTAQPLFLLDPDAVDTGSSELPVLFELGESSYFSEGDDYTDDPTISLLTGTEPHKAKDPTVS

Streptococcus = assay: Group A Streptococcus viability loss, dose response, counter-screen for streptokinase expression inhibitor project, luminescence, BacTiterGlo (AID 1915); assay type: functional, organism-based;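 also: potency for reduction of bacterial viability or growth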
[4] = target: T2, Replicative DNA helicase DnaB (Mycobacterium tuberculosis, UniProt P9WMR3); assay: DnaB intein splicing inhibitors, dose response, biochemical, cell-free fluorescence (AID 449749); assay type: functional
T2 sequence (P9WMR3 whole entry): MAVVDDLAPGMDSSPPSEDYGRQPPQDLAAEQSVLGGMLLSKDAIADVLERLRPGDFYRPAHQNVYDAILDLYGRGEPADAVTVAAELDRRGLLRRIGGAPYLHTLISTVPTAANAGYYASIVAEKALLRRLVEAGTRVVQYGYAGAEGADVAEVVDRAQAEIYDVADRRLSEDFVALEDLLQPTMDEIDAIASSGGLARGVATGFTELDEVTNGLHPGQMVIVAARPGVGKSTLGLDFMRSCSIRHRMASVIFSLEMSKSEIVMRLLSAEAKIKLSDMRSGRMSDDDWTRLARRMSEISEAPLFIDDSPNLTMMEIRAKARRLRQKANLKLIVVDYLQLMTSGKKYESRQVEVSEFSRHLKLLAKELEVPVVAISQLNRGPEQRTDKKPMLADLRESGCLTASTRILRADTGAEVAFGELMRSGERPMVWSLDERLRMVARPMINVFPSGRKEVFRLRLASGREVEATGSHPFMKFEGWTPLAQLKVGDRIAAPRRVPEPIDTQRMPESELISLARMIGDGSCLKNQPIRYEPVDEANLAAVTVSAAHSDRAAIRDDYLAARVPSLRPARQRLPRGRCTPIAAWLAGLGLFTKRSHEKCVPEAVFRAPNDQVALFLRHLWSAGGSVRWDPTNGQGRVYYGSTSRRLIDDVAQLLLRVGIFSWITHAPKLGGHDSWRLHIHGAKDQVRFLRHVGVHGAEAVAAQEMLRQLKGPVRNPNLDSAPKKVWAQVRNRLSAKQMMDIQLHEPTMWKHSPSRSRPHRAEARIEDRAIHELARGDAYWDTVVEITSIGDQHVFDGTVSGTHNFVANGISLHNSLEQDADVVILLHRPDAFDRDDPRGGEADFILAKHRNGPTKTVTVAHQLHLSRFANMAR

Protein RecA = target: T3, Protein RecA (Mycobacterium tuberculosis, UniProt P9WHJ3); assay: Fluorescence Cell-Free Homogeneous Dose Retest to Identify Inhibitors of RecA-Intein Splicing Activity. [Related pubchem assays (depositor defined):AID2097, AID2223, AID489010, AID492950]; assay type: functional
T3 sequence (P9WHJ3 whole entry): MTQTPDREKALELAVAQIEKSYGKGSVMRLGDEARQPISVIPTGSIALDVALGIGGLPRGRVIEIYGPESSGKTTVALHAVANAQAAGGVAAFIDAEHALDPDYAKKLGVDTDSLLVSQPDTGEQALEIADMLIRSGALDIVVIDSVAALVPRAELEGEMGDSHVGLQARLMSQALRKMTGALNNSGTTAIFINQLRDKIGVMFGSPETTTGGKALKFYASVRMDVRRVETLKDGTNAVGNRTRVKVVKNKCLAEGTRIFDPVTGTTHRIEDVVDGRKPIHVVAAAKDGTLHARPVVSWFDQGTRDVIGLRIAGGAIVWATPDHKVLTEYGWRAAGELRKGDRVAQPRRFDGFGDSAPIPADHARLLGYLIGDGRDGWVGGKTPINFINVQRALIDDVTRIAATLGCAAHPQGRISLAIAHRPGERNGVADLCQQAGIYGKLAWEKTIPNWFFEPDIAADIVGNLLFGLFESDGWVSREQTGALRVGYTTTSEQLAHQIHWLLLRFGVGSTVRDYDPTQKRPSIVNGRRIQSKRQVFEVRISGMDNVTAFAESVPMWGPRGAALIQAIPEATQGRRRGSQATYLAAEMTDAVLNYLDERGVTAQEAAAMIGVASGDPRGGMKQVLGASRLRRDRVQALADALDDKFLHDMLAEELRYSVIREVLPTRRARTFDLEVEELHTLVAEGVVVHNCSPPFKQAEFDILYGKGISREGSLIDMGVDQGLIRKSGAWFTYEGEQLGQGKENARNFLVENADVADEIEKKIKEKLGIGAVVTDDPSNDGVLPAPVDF

[5] = system: Streptococcus sp. 'group A'; assay: growth inhibition of control SK(-) GAS strain, dose response, counter-screen for streptokinase expression inhibitor project, luminescence, kanamycin, BacTiterGlo, confirmation (AID 1900); assay type: functional, organism-based
[6] = target: 72 kDa type IV collagenase (Homo sapiens, UniProt P08253); assay: Dose Response validation of uHTS RPN11 inhibitor hits using a MMP-2 Fluorescence assay.; assay type: functional
72 kDa type IV collagenase, sequence (P08253 whole entry): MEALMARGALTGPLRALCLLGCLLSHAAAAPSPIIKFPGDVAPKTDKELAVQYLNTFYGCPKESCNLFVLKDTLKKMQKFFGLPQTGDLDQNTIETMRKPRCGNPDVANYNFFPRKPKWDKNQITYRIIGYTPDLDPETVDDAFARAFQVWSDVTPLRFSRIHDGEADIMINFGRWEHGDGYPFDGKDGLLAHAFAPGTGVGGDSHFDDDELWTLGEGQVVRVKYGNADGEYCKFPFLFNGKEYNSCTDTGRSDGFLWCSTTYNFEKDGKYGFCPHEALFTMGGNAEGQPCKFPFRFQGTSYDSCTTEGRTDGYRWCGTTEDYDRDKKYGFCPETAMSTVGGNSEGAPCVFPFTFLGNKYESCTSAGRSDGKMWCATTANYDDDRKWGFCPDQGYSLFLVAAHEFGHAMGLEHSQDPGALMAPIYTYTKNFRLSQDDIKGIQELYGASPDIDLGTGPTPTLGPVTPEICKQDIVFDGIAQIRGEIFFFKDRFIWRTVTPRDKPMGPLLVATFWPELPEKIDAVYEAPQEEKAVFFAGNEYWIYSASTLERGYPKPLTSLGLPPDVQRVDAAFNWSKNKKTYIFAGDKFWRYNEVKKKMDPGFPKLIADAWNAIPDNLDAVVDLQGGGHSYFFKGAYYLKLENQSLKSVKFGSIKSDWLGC

[7] = target: T4, Mitochondrial peptide methionine sulfoxide reductase (Bos taurus, UniProt P54149); assay: Absorbance-based biochemical high throughput dose response assay for activators of Methionine sulfoxide reductase A (MsrA).; assay type: functional
T4 sequence (P54149 whole entry): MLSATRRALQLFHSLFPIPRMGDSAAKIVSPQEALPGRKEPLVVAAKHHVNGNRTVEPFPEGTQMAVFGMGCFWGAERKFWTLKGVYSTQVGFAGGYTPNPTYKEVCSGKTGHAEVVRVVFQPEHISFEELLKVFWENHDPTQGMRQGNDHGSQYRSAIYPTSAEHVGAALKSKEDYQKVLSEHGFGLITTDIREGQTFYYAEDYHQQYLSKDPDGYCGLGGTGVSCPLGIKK

Cytochrome P450 2C19 = Cytochrome P450 2C19 (Homo sapiens, UniProt P33261); assay: Cytochrome panel assay with activity outcomes. Panel member name: p450-cyp2c19 Compounds with AC50 equal or less than 10 uM are considered active; assay type: functional
Cytochrome P450 2C19, sequence (P33261 whole entry): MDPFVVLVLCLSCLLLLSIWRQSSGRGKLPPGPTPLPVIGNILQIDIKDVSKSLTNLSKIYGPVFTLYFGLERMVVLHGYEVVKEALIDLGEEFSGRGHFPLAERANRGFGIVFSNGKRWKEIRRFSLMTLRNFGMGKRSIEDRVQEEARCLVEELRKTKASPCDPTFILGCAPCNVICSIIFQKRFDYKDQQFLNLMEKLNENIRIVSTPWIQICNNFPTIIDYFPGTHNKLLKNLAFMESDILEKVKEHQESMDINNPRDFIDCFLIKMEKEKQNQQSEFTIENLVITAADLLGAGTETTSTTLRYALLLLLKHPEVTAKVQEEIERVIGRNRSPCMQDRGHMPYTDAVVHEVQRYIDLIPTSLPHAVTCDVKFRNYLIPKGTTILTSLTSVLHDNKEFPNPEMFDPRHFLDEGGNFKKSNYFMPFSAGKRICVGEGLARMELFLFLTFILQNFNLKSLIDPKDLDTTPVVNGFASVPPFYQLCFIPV

Cytochrome P450 2D6 = Cytochrome P450 2D6 (Homo sapiens, UniProt P10635);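 also: CYP2D6 member of a cytochrome P450 panel assay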
Cytochrome P450 2D6, sequence (P10635 whole entry): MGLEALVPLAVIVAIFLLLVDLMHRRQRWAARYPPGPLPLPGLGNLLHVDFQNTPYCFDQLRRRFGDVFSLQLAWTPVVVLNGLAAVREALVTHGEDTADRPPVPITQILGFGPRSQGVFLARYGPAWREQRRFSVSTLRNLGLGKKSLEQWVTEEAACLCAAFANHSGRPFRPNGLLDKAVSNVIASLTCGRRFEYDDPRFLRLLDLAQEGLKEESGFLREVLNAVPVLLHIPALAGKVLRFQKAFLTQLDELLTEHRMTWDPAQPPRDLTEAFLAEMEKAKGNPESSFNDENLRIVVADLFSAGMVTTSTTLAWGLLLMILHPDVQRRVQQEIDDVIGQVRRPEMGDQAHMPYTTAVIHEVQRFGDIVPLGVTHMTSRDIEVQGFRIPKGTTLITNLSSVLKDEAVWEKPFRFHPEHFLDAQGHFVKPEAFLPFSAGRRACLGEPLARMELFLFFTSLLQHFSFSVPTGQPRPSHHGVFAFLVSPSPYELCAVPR

Cytochrome P450 3A4 = Cytochrome P450 3A4 (Homo sapiens, UniProt P08684);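 also: CYP3A4 tested as one member of a cytochrome P450 panel screen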
Cytochrome P450 3A4, sequence (P08684 whole entry): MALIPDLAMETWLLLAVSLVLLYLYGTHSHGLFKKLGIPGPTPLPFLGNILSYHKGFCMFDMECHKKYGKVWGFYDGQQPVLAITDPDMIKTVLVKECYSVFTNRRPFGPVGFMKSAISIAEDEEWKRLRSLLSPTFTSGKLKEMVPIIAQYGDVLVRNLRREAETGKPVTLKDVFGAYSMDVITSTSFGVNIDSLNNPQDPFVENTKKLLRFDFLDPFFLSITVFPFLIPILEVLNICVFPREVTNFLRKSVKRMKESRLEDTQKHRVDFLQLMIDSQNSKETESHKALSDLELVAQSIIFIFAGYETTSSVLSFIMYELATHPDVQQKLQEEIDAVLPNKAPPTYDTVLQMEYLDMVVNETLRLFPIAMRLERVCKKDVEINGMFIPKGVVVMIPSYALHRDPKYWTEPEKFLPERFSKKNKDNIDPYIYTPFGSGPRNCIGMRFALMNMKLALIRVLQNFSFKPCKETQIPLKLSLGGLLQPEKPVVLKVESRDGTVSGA

HEK293 = assay: inhibitors of LMP1-driven NF-kB reporter, dose response, cell-based, HEK293, luciferase, cherry-pick (AID 588343); assay type: functional; details: Homo sapiens
Escherichia coli = assay: microbe, parasite or virus in culture
cells = assay type: functional
[8] = inhibitors of clade B AD8 Env fusion, dose response, cell-based, cherry-pick (AID 652062); assay type: functional;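 also: luciferase signal from cell-cell fusion driven by HIV-1 clade B AD8 Env; potency is for inhibitors of fusion seen as a drop in luminescence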
[9] = off-target signal loss in HeLa-CEM21 co-culture – HeLa F-luc CTL cells, cherry-picked, counter-screen for HIV-1 Env fusion inhibitor project, dose response (AID 652040); assay type: functional, cell-based;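 also: potency for signal decrease marking cytotoxic or nonspecific inhibition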
[10] = ZM109 Env clade C HIV-1 fusion inhibitors, dose response, HeLa effector, CEM target cells, luciferase, cherry-pick (AID 652058); assay type: functional, cell-based
[11] = inhibitors of HIV Env-driven cell fusion, dose response, cherry-pick (AID 652057); assay type: functional, cell-based
[12] = CEM21 lymphoblast cell cytotoxicity, dose response, cytotoxicity control for viral fusion inhibitor project, CellTiter-Glo luminescence, cherry-picked (AID 652042); assay type: functional, cell-based;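 also: potency for signal decrease meaning cytotoxicity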
H9c2 = assay: cells; assay type: functional, cell-based; details: Rattus norvegicus, H9c2, Myocardium;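 also: confirmatory concentration-response retest of ultra-high-throughput screening hits for modulation of myocardial damage; cell death induced by hydrogen peroxide oxidative stress; compound pretreatment for 60 min then peroxide exposure for 2 h; potency is for protecting the cells against peroxide damage rather than for killing them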
Protein Wnt-3a = Protein Wnt-3a (Mus musculus, UniProt P27467); assay: Wnt3a-driven reporter signaling inhibition, dose response, selectivity assay for Gli-SUFU antagonist project, Wnt-LIGHT cells, luminescence (AID 651570); assay type: functional; details: read-out: IC50_Mean;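 also: Wnt-LIGHT reporter cells stimulated with conditioned medium from Wnt3a-producing cells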
Protein Wnt-3a, sequence (P27467 whole entry): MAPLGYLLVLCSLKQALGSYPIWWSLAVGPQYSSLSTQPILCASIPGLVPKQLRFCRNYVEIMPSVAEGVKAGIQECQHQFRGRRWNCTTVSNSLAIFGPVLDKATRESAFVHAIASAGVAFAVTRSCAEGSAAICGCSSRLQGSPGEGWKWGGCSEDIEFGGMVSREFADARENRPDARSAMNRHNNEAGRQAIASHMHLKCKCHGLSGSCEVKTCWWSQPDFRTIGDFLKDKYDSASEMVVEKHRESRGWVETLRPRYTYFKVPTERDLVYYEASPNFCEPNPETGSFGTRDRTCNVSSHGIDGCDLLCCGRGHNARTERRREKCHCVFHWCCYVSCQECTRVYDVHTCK

26S proteasome non-ATPase regulatory subunit 14, sequence (O00487 whole entry): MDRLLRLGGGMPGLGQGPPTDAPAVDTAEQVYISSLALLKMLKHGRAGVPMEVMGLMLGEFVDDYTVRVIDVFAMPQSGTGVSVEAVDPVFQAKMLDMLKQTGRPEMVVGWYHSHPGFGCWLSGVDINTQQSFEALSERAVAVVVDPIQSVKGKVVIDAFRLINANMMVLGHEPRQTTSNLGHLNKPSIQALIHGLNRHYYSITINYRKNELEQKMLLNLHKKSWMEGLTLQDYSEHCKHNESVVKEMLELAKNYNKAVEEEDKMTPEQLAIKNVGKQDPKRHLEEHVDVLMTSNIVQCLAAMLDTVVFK

With CN1CCN(C(c2ccc(Cl)cc2)c2cc(Cl)c3cccnc3c2O)CC1 (configuration not stated) the IC50 [1] was 56.4 µM (active), the IC50 (Prothrombin) was 75.6 µM (active) and the AC50 [2] was 0.77 µM (active). The EC50 [3] was > 260 µM (inconclusive), the EC50 (Streptococcus) was 3.8 µM (active) and the AC50 [4] was > 380 µM (inactive). The EC50 (Protein RecA) was 2.42 µM (active), the EC50 [5] was 1.92 µM (active) and the IC50 [6] was 14.8 µM (active).

In the case of N#Cc1ccccc1NC(=O)CN1C(=O)NC(Cc2c[nH]c3ccccc23)C1=O (configuration not stated), the EC50 [7] is reported as > 104 µM (inactive).

In the case of CCCN1CCN(C(=O)CN2C(=O)CC(C)(C)S(=O)(=O)c3ccccc32)CC1, the AC50 (Cytochrome P450 2C19) is reported as “inconclusive”, the AC50 (Cytochrome P450 2D6) is reported as “inconclusive” and the AC50 (Cytochrome P450 3A4) is reported as 12.6 µM (inconclusive).

In the case of COc1ccc(/C=C2\N=C(C)OC2=O)cc1[N+](=O)[O-], the AC50 (HEK293) is reported as 237 µM (active).

For O=C(c1ccccc1)N1CCN(c2nc3ccc([N+](=O)[O-])cc3s2)CC1, the AC50 (Escherichia coli) was 28.7 µM (active).

With CCc1ccc(/C=N/NC(=O)c2ccccn2)cc1 the IC50 (cells) was 5.9 µM (active) and the AC50 (HEK293) was 3.11 µM (active).

With COc1ccc(/N=C2\SC(C(=O)O)CC(=O)N2Cc2ccc(OC)c(OC)c2)cc1 (configuration not stated) the AC50 (Escherichia coli) was 86.2 µM (active).

For COc1cccc(-c2nnc3sc(C4CCCCC4)nn23)c1, the AC50 [8] was 3.09 µM (active), the AC50 [9] was 3.63 µM (active) and the AC50 (HEK293) was 17 µM (active). The AC50 [10] was 5.07 µM (active), the AC50 [11] was 4.26 µM (active) and the AC50 [12] was 30 µM (active).

For Cc1ccc2c(c1)nc1c3ccccc3nc(-c3ccccc3N)n21, the IC50 (H9c2) was > 79 µM (inactive).

With COc1nnc(-c2ccc(N3CCCCC3)c(N)c2)c2ccccc12 the IC50 (Protein Wnt-3a) was 25.8 µM (inactive).

With CC12C=CC(=O)CC1CCC1C2CCC2(C)C(O)C(O)CC12 (configuration not stated) the IC50 (H9c2) was > 79 µM (inactive).
